# Legend:
# ECa-109 cell line = assay: cells; conditions: Homo sapiens, ECa-109, 48 h
# Description: Cytotoxicity against human EC-109 cells assessed as reduction in cell viability after 48 hrs by MTT assay
# MGC-803 = assay: cells; conditions: Homo sapiens, MGC-803, 48 h
# Description: Cytotoxicity against human MGC-803 cells assessed as reduction in cell viability after 48 hrs by MTT assay
# PC-3 = assay: cells; conditions: Homo sapiens, PC-3, 48 h
# Description: Cytotoxicity against human PC-3 cells assessed as reduction in cell viability after 48 hrs by MTT assay
# B16-F10 = assay: cells; conditions: Mus musculus, B16-F10, 48 h
# Description: Cytotoxicity against mouse B16-F10 cells assessed as reduction in cell viability after 48 hrs by MTT assay
# [1] = molecular target: T1, Lysine-specific histone demethylase 1A (Homo sapiens, UniProt O60341); assay: biochemical
# Description: Inhibition of recombinant human LSD1 (157 to 852 residues) expressed in Escherichia coli BL21 (DE) cells using H3K4me2 substrate incubated for 30 mins by amplex red assay
# [2] = molecular target: Cyclin-dependent kinase 6 (Homo sapiens) (UniProt Q00534); assay: Inhibition of CDK6 (unknown origin) at 20 uM relative to control
# Chain of Cyclin-dependent kinase 6 (Homo sapiens) (Q00534 whole entry): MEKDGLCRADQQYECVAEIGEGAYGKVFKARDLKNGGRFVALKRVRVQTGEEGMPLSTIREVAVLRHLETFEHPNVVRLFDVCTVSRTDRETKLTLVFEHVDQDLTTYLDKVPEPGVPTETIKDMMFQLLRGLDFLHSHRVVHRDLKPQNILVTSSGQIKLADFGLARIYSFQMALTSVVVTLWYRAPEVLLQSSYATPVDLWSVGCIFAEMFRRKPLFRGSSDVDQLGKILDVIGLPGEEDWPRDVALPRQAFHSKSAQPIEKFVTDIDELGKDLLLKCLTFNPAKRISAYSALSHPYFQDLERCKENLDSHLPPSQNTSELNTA
# MAO-A = molecular target: T2, MAO-A (Homo sapiens, UniProt P21397); assay: Inhibition of MAO-A (unknown origin) at 20 uM relative to control
# T2 sequence (P21397 whole entry): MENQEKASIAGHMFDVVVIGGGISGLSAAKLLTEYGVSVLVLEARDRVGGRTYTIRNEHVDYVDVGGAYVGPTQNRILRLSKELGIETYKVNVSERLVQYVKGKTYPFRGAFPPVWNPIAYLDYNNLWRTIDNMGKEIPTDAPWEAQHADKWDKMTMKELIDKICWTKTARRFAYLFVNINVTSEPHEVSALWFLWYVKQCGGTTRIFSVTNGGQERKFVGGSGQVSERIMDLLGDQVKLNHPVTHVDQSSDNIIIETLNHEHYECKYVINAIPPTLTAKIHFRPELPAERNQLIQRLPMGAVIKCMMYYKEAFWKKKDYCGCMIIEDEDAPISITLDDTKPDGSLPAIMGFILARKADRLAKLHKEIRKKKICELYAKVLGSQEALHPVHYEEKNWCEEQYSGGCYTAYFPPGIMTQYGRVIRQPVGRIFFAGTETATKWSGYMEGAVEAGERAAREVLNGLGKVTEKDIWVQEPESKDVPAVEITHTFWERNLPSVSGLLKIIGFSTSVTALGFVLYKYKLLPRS
# [3] = molecular target: Tyrosine-protein kinase BTK (Homo sapiens) (UniProt Q06187); assay: Inhibition of BTK (unknown origin) at 20 uM relative to control
# Chain of Tyrosine-protein kinase BTK (Homo sapiens) (Q06187 whole entry): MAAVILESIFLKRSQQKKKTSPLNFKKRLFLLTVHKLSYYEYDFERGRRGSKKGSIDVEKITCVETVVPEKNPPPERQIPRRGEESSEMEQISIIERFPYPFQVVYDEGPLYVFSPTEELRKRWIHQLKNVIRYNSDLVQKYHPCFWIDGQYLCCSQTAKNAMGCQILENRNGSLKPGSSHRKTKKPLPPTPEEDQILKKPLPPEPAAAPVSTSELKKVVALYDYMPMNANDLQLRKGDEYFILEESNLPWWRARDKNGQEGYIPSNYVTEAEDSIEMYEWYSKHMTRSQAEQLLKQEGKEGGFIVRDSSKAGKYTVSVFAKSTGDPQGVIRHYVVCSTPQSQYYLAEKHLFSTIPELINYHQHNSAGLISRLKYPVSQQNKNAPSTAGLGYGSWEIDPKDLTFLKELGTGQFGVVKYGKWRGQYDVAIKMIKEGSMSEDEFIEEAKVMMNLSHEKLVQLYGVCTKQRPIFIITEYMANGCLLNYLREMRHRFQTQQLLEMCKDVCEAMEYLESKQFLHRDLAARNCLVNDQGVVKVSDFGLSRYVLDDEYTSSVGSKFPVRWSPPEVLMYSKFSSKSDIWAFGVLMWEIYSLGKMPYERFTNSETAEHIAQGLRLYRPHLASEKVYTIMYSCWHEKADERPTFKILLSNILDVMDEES
# MAO-B = molecular target: T3, MAO-B (Homo sapiens, UniProt P27338); assay: Inhibition of MAO-B (unknown origin) at 20 uM relative to control
# T3 sequence (P27338 whole entry): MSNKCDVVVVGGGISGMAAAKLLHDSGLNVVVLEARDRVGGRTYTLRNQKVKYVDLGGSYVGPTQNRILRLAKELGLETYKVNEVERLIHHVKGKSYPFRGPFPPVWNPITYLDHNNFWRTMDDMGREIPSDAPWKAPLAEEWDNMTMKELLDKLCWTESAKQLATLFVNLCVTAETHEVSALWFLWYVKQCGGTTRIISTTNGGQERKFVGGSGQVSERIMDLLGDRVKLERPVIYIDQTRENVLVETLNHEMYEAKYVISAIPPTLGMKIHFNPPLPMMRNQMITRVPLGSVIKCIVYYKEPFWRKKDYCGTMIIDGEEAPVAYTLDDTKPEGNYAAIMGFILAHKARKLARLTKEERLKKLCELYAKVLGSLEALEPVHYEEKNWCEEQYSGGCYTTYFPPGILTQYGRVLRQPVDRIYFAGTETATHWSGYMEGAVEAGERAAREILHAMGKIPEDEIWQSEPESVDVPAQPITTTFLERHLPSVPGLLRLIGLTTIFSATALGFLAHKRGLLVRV
# [4] = molecular target: T1, Lysine-specific histone demethylase 1A
# [5] = molecular target: Cyclin-dependent kinase 1 (Homo sapiens) (UniProt P06493); assay: Inhibition of CDK1 (unknown origin) at 20 uM relative to control
# Chain of Cyclin-dependent kinase 1 (Homo sapiens) (P06493 whole entry, looked up): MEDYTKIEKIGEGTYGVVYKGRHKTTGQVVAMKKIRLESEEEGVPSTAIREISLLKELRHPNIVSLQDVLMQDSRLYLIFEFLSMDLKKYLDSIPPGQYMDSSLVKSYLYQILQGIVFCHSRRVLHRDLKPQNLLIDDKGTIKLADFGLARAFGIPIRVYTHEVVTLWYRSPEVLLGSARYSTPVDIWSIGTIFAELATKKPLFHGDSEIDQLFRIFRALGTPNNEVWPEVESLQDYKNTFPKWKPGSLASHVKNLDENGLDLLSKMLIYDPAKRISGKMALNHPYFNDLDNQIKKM
# [6] = molecular target: T1, Lysine-specific histone demethylase 1A; assay: Inhibition of LSD1 in human MGC803 assessed as reduction in H3K4me2 protein expression incubated for 24 hrs by Western blot analysis; conditions: MGC-803, dose 10-40 µM
# [7] = molecular target: Cyclin-dependent kinase 2 (Homo sapiens) (UniProt P24941); assay: Inhibition of CDK2 (unknown origin) at 20 uM relative to control
IC50 (ECa-109 cell line) [µM],IC50 (MGC-803) [µM],IC50 (PC-3) [µM],IC50 (B16-F10) [µM],IC50 [1] [µM],inhibition [2] [%],inhibition at 20 µM (MAO-A) [%],inhibition [3] [%],inhibition at 20 µM (MAO-B) [%],Ratio IC50 [4],inhibition [5] [%],inhibition [6],inhibition [7] [%],Compound
19.7,20.7,15.6,> 64,–,–,–,–,–,–,–,–,–,CCCSc1nc2c(nnn2CCNC(=S)Nc2ccc(OC)cc2)c(=O)[nH]1
9.88,8.3,9.15,11.5,9.75,20,3.9,< 10,11.8,3,< 10,Dose-dependent effect,< 10,CCCSc1nc2c(nnn2CCNC(=S)Nc2cccc3ccccc23)c(=O)[nH]1
> 64,26,23.4,14.2,–,–,–,–,–,–,–,–,–,CCCSc1nc2c(nnn2CCNC(=S)Nc2ccccc2Cl)c(=O)[nH]1
> 64,46.3,25.5,> 64,–,–,–,–,–,–,–,–,–,CCCSc1nc2c(nnn2CCNC(=S)NCc2ccccc2)c(=O)[nH]1

# — ChEMBL document CHEMBL4706492, “[1,2,3]Triazolo[4,5-d]pyrimidine derivatives incorporating (thio)urea moiety as a novel scaffold for LSD1 inhibitors” (Eur J Med Chem, 2020)
